# Measured values: patent publication US20220175955A1, “PEPTIDE DISPLAY TO ANTIGEN PRESENTING CELLS USING LIPID VEHICLE” (Torque Therapeutics Inc., priority 2018, published 2022)
# Test system: CD11c+ BMDCs
# Experiment: Antigen presentation (MHC I:SIINFEKL) on antigen-pulsed BMDCs in vitro, flow cytometry
# Type: cell-based, mouse
# Settings: 1 μM epitope; later time points (48 h to 96 h); FIG. 1
# Description: Bone marrow derived dendritic cells (BMDCs) were differentiated in vitro before antigen pulsing. Bone marrow cells were isolated from tibia and femur from C57bl/6 JrJ mice obtained from Janvier SAS. After sacrificing the mice by cervical dislocation, bones were isolated and kept in tissue storage solution (MACS Miltenyi). After a 2 min sterilization in 70% ethanol, bones were cut at each end with a scalpel end flushed with medium by using a 29 g insulin syringe. Following isolation, bone marrow cells were cultured in complete RPMI 1640 medium supplemented with 20 ng/ml mouse recombinant GM-CSF. On day 3, cells were supplemented with fresh medium containing GM-CSF. On day 6, immature BMDCs were harvested, re-plated and incubated with 1 μM liposomal (MK062 or MK062 TMX) or soluble SIINFEKL epitope. BMDCs were harvested after 24 or 48 hours for flow cytometry analysis. […] After blocking for 5 min on ice, cells were stained with antibodies against the dendritic cell marker CD11c and assessed for antigen presentation by an antibody recognizing SIINFEKL presented on MHC I molecules (H-2kb). […]
# […] After blocking for 5 min on ice, cells were stained with antibodies against the dendritic cell marker CD11c and assessed for antigen presentation by an antibody recognizing SIINFEKL presented on MHC I molecules (H-2kb). […]
sequence,measurement,value
SIINFEKL (Synthetic antigen),Antigen presentation (MFI of MHC:SIINFEKL in CD11c+ BMDCs),decreased markedly
